The source of these data is patent US20260345568A1, “INHIBITING MONOACYLGLYCEROL LIPASE (MAGL)” (PSY THERAPEUTICS, INC., priority 2023, published 2026).

Some results are limits rather than exact numbers.

In test [1] the target is T1, Flag-tagged MAGL enzyme (Homo sapiens, UniProt Q99685).
T1 sequence (Q99685 1-303): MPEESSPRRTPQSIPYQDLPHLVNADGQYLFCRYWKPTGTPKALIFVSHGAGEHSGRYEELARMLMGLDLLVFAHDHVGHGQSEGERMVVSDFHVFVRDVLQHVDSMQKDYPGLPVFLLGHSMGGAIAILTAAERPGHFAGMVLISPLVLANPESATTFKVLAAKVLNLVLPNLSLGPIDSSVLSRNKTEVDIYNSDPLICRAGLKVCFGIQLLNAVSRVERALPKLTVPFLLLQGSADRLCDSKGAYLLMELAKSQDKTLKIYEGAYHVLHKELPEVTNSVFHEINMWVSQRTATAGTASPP
The test can be described thus: Reversible MAGL inhibition, washout of immobilized Flag-tagged MAGL enzyme (Example C). Type of test: biochemical. The settings on record: for activity at 1 µM: 0.5 h, relative to control (no inhibitor before washout), immediately following a 30 minute washout, pre-washout 1 μM, read-out: % MAGL activity returning after washout; for degree to which MAGL enzymatic activity returned following washout: pre-washout compound concentration 1 μM. The method, then: The reversible mechanism of MAGL inhibition of a test compound of Formula (I) can be determined. Flag-tagged MAGL enzyme will be immobilized on anti-Flag beads Immobilized enzyme will be incubated+/−inhibitor at a dose that produces complete inhibition. Colorimetric substrate (4-NPA) will be added and the reaction monitored on a plate reader for 30 minutes to verify complete inhibition. Immobilized enzyme will then be washed thoroughly to remove the inhibitor, and fresh substrate will be added. The reaction will be monitored for an additional 30 minutes; returning enzymatic activity will indicate reversibility of inhibition.
For some test compounds, % activity returning after washout may be less than 100% if complete compound unbinding takes longer than 30 minutes.

Test [2] addresses T2, human MAGL (Homo sapiens, UniProt Q99685).
T2 construct: recombinant MAGL enzyme (aa 2-303 RBC, internal preparation)
T2 sequence (Q99685 2-303): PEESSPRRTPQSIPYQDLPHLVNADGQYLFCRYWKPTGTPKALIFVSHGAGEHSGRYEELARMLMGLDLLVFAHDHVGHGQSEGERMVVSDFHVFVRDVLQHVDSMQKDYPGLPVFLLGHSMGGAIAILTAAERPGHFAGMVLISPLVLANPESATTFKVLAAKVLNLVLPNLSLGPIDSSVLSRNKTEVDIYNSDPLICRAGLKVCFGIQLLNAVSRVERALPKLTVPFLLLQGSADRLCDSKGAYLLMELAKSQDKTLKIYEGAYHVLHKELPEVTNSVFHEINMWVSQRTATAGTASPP
The test can be described thus: MAGL inhibition potency, 4-nitrophenyl acetate (4NPA) hydrolysis, absorbance 405 nm (Example A). Type of test: biochemical. The settings on record: Method 12: Reaction Biology MAGL enzyme, 15 nM; 4NPA substrate; read-out: MAGL Potency (Detection Method). From the text:
The potency of certain compounds for inhibiting MAGL were obtained using the following assays.
The monoacylglycerol lipase inhibitor screening assay kit from Cayman Chemical was used to measure the MAGL potency for the compounds in Tables A-1, A-2, A-3.
Cayman's Monoacylglycerol Lipase Inhibitor Screening Assay provides a method for screening human MAGL inhibitors. MAGL hydrolyzes 4-nitrophenylacetate resulting in a yellow product, 4-nitrophenol, with an absorbance of 405-412 nm.
MAGL Inhibition was measured by the following assay. Monoacylglycerol Lipase (MAGL) inhibition was measured using recombinant MAGL enzyme (aa 2-303 RBC, internal preparation) and the substrate 4-Nitrophenyl acetate (4NPA) (Sigma-Aldrich, N8130). Hydrolysis of the substrate in the presence of the enzyme was measured by absorbance at 405 nm. 10 μL of assay buffer (10 mM Tris pH 7.5, 1 mM EDTA, 0.9% DMSO) was added to a black 384-well non-binding plate with clear bottom (Greiner, 781906) for each reaction. Compounds were dispensed using an acoustic liquid handler (Echo, Beckman) at 45 nL (0.1% DMSO). Test compounds and control for MAGL inhibitor JZL-184 (Caymen Chemical, 13158) were tested in 10-concentration IC50 mode with 3-fold serial dilution at a starting concentration of […]. DMSO control wells were included for reference. A 10.8 nM (1.8×) MAGL mix in assay buffer was prepared, with 25 μL added to each reaction well, for a final assay concentration of […]. No enzyme wells received 25 μL of buffer. Plate was incubated at room temperature for 30 minutes. 35 mM solution of 4NPA in methanol was prepared daily A 4.5×4NPA substrate solution was prepared in assay buffer and 10 μL was added to each reaction well, for a final assay concentration of 0.25 mM. Plate was spun for 1 minute at 1000 rpm before measuring absorbance using a CLARIOstar plate reader (BMG Labtech). A kinetic reading at 405 nm was done every minute for 30 minutes. Data was analyzed using the linear slope of the reaction progress curve and the average of the no-enzyme wells (background) was subtracted from the data. The background-subtracted slope data was converted to % activity using the average of wells with enzyme and DMSO vehicle. IC50s were calculated using GraphPad software (Sigmoidal dose response, variable slope equation).
Table 8 provides potency measurements of MAGL inhibition measured using the Potency Assay of Example A above, with the following modifications described in Table C.
The number after each letter for potency measurement value indicates the Method from Table C that was used to obtain that measurement value (e.g. “A(1)” indicates an IC50 measurement of <50 nM obtained from the Method 1 of Example A in Table C).

The target in test [3] is T3, human recombinant FAAH (Homo sapiens, UniProt O00519).
T3 construct: purchased Cayman Chemical 700302 (enzyme); kit Item No. 10005196
T3 sequence (O00519 1-579): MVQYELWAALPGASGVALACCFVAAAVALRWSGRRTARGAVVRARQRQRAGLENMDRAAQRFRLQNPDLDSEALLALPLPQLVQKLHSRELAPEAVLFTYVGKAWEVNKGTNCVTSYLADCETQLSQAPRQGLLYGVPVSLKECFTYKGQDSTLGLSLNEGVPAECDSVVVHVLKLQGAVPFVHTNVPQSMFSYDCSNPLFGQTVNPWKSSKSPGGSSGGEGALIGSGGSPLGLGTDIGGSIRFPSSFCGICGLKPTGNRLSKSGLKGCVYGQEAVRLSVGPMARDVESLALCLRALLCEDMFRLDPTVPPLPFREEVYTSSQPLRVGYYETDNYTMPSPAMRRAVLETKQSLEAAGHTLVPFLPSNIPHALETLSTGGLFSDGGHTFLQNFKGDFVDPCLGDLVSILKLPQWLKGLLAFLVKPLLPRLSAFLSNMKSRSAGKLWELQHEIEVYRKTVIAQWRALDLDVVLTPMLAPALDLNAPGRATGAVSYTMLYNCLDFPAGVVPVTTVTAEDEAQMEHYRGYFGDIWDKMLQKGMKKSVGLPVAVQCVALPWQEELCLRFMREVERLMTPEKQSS
Kind of test: FAAH counter-screen, AMC arachidonoyl amide substrate (Example B). Type of test: biochemical. The settings on record: Method B; 20 uM AAMCA substrate. As to the method:
Comparative compound potency at FAAH can be obtained with the following assay.
MAGL inhibitor compounds were also counter-screened for FAAH inhibition potency using the following assay. Assessment of FAAH inhibition was performed using Fatty Acid Amide Hydrolase Inhibitor Screening Assay Kit (Cayman Item No. 10005196) following manufacture's instruction with some modifications. The kit utilizes human recombinant FAAH and the fluorescent substrate, AMC Arachidonoyl amide (AAMCA). […] 300 nL or 30 nL of test compounds were delivered into a 384-well black plate (Corning, 3573) using a Labcyte Echo, followed by addition of 15 μL of FAAH enzyme (Cayman, 700302) in assay buffer. After a 5-minute pre-incubation at room temperature, 10 μL of AAMCA was added in assay buffer to start the reaction. Final concentration of FAAH enzyme is not specified and AAMCA substrate was used at the 20 uM. After these dilutions, the final concentration of the test compounds ranged from 100 μM to 5.08 nM or 10 μM down to 0.508 nM. The reaction was allowed to progress for 60 minutes, while the plate was read on an Envision plate reader at an Ex/Em of 350/460 nm with readings every minute. The data was analyzed in Microsoft Excel, using the slope between 30 and 59 minutes. The average of the no-enzyme wells (background) was subtracted from the data. The background-subtracted slope data was converted to % activity using the average of wells with enzyme and DMSO vehicle. IC50 values were calculated using GraphPad software (Sigmoidal dose response, variable slope equation).
Compounds listed in Table D were tested in the FAAH Counter-screen of Example B.
For orientation: Counterscreens check selectivity or assay interference.

Test [4] deals with brain and peripheral 2-AG; brain AA. Particulars: irreversible MAGL inhibition; cited from earlier work.

Take `O=C(c1cc(O)ccc1F)N1CC2(CC(n3nc(-c4ccc(=O)[nH]c4)cc3C(F)(F)F)C2)C1` [Compound 10, 5-(1-{2-(2-fluoro-5-hydroxybenzoyl)-2-aza-6-spiro[3.3]heptyl}-5-(trifluoromethyl)-3-pyrazolyl)-2(1H)-pyridinone]: in test [1], the activity at 1 µM is more than 50% and the degree to which MAGL enzymatic activity returned following washout came out at 122%. Also, in test [2], the IC50 is less than 0.05 µM. The IC50 in test [3] is more than 10 µM.
`COc1ccc(-c2cc(C(F)(F)F)n(C3CC4(C3)CN(C(=O)c3cc(O)ccc3F)C4)n2)cn1` [Compound 17, (2-fluoro-5-hydroxyphenyl) (6-(3-(6-methoxypyridin-3-yl)-5-(trifluoromethyl)-1H-pyrazol-1-yl)-2-azaspiro [3.3]heptan-2-yl) methanone]: in test [1], the activity at 1 µM is more than 50% and the degree to which MAGL enzymatic activity returned following washout is 89%. The IC50 in test [2] was less than 0.05 µM. Also, in test [3], the IC50 was more than 10 µM.
For the molecule `O=C(Oc1ccc([N+](=O)[O-])cc1)N1CCC(C(O)(c2ccc3c(c2)OCO3)c2ccc3c(c2)OCO3)CC1` [JZL-184, reference compound], in test [1], the activity at 1 µM was less than 1% and the “degree to which MAGL enzymatic activity returned following washout” value is “complete lack of return of MAGL enzymatic activity”. For the same molecule, in test [4], the “brain AA” value is “reduce”; the “brain and peripheral 2-AG” value is reported as “increase”.
As for `COc1ncccc1-c1cc(C(F)(F)F)n(C2CC3(C2)CN(C(=O)c2cc(O)ccc2F)C3)n1` [Compound 15, (2-fluoro-5-hydroxyphenyl)(6-(3-(2-methoxypyridin-3-yl)-5-(trifluoromethyl)-1H1-pyrazol-1-yl)-2-azaspiro[3.3]heptan-2-yl)methanone], in test [1], the activity at 1 µM is more than 50% and the degree to which MAGL enzymatic activity returned following washout is 99%. The IC50 in test [2] is less than 0.05 µM. Moreover, the IC50 in test [3] was more than 10 µM.
As for `O=C(c1cc(O)ccc1F)N1CC2(CC(n3nc(C(F)(F)F)cc3-c3ccccn3)C2)C1` [Compound 5, (2-fluoro-5-hydroxyphenyl){6-[5-(2-pyridyl)-3-(trifluoromethyl)-1-pyrazolyl]-2-aza-2-spiro[3.3]heptyl}methanone], in test [1], the activity at 1 µM was more than 50%. For the same molecule, the degree to which MAGL enzymatic activity returned following washout in test [1] came out at 123%. Further, the results for the IC50 in test [2] and in test [3] were less than 0.05 µM and more than 10 µM, respectively.
Turning to `O=C(c1cc(O)ccc1F)N1CC2(CC(n3nc(-c4ccc[nH]c4=O)cc3C(F)(F)F)C2)C1` [Compound 12, 3-(1-{2-(2-fluoro-5-hydroxybenzoyl)-2-aza-6-spiro[3.3]heptyl}-5-(trifluoromethyl)-3-pyrazolyl)-2(1H)-pyridinone], in test [1], the activity at 1 µM is more than 50%. For the same molecule, in test [1], the degree to which MAGL enzymatic activity returned following washout was determined as 135%. The IC50 was less than 0.05 µM in test [2] and more than 10 µM in test [3].
